30 molecules from PubChem BioAssay (NCI) can be followed below.

The structures appear in SMILES notation. Values joined by “and” are separate entries in the source; they are usually repeats but may differ in a detail not shown here. Identical values can stand only once.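 Values below derive from 48-hour exposures of cells grown in 96-well plates, with endpoints linearly interpolated between the two concentrations bracketing the appropriate inhibition level. Abbreviation: GI50, concentration required for 50% inhibition of growth. TGI: concentration producing complete growth inhibition.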

Assay in all cases: growth of human tumour cells (NCI), 48 h
Experiment [1] has as its system SK-MEL-5 melanoma.
Experiment [2] has as its system NCI-H460 lung.
The test system of experiment [3] is M14 melanoma.
Experiment [4] concerns SK-MEL-28 melanoma.
Experiment [5] has as its system UACC-257 melanoma.
For experiment [6], the system named is RPMI-8226 leukemia.
The subject of experiment [7] is NCI/ADR-RES ovarian.
Experiment [8] relates to MCF7 breast.
Experiment [9] relates to SR leukemia.

`Cc1ccc(S(=O)(=O)N[C@H](C(=O)O)c2ccccc2)cc1`: the TGI in experiment [1], in experiment [2], in [3], in [4], in experiment [5] and in experiment [6] was above 100 µM throughout.
`N=C(N)c1ccc(OCc2cccc(COc3ccc(C(=N)N)cc3)c2)cc1`: the GI50 was 1.96 µM in [1]; 4.27 µM in experiment [2]; 2.83 µM in experiment [3]; 5.15 µM in experiment [4]; 14.4 µM in [5]; above 100 µM in [7]. For the same molecule, the GI50 in experiment [6] is 3.11 µM; in experiment [8], 4.5 µM. Besides, the TGI in experiment [1] is 4.28 µM; in experiment [2] it was 20 µM; in experiment [3], 7.35 µM; in experiment [4], 29.1 µM; in experiment [5] it was 84.8 µM; in experiment [7] it was above 100 µM. Also, the TGI in experiment [6] turned out to be 7.88 µM; in experiment [8], 14.9 µM.
On to `NC1=NC(=O)/C(=C/c2ccccc2[N+](=O)[O-])C(N)=N1`, for which the TGI in experiment [1], in [2], in experiment [9], in experiment [3], in experiment [4] and in experiment [5] was above 100 µM throughout. The TGI in experiment [6] is above 100 µM.
In the case of `CCOc1ccccc1NC(=O)CC1C(=O)Nc2ccccc2S1=O` (stereo not given), the TGI in [1], in experiment [2], in experiment [9], in experiment [3], in experiment [4] and in experiment [5] was above 100 µM throughout. For the same molecule, the TGI in [6] stood at 46.1 µM.
For the molecule `CC[C@]1(O)CC(OC2CC(N(C)C)C(O)C(C)O2)c2c(cc3c(c2O)C(=O)c2c(O)cccc2C3=O)[C@@H]1C(=O)OC` (stereo not given in full), the TGI came out at 0.941 µM in experiment [1]; 3.46 µM in experiment [2]; 2.07 µM in experiment [3]; 3.04 µM in [4]; 1.88 µM in experiment [5]; 3.95 µM in [7]. The same molecule returned a TGI in experiment [8] of 6.17 µM.
For the molecule `NC(=O)NNCc1ccccc1`, the TGI in experiment [1], in experiment [2], in experiment [3], in [5], in [7] and in experiment [6] was above 100 µM in each case. In [8], this molecule showed a TGI above 100 µM.
On to `CCCCCCCCCCCCNC(C)=O`, for which the TGI in experiment [1] is 30.4 µM; in experiment [2] it was 32.7 µM; in [3] it was 32.6 µM; in [4], 31.4 µM; in experiment [5] it was 63.9 µM; in experiment [7], 33.3 µM. Further, the values for the TGI in [6] and in [8] were 30.7 µM and 32.4 µM, respectively.
For `C[N+](C)(C)CC1CCCC/C1=N\OC(=O)c1ccccc1` (stereo not given), the TGI in [1], in experiment [2], in [9], in experiment [3], in experiment [4] and in [5] was above 100 µM in each case. The TGI in [6] was above 100 µM.
As to `CCOC(=O)c1c2c(c(O)c3ccccc3c(O)n(Cc3ccc(OC)cc3)c1C)C(=O)C=CC2=O`, the GI50 in experiment [1], in experiment [2], in experiment [3], in [4], in experiment [5] and in experiment [7] was above 100 µM throughout. For the same molecule, the GI50 in [6] and in [8] was above 100 µM in each case. Besides, the TGI in experiment [1], in [2], in experiment [3], in experiment [4], in [5] and in experiment [7] was above 100 µM in each case. Further, the TGI in [6] and in [8] was above 100 µM throughout.
In the case of `COc1cc(/C=C/c2ccncc2)cc(OC)c1OC`, the TGI in [1], in experiment [2], in [3], in experiment [4], in experiment [5] and in [6] was above 100 µM each time.
Turning to `CN1C(=O)CC(c2cccc(C3CC(=O)N(C)C3=O)n2)C1=O` (stereo not given), the TGI in [1], in experiment [2], in experiment [9], in [3], in experiment [4] and in [5] was above 100 µM each time.
As for `Cc1ccccc1NC(=O)C(=O)C(C#N)c1ccc(Cl)cc1` (stereo not given), the TGI is above 100 µM in experiment [1]; 56 µM in experiment [2]; above 100 µM in experiment [3]; above 100 µM in [4]; above 100 µM in experiment [5]; 48.8 µM in experiment [6].
Regarding `C[C@@H]1COCCN1c1cc(C2([S@](C)(=N)=O)CC2)nc(-c2ccnc3[nH]ccc23)n1`, the GI50 in experiment [1] is 3.6 µM and 3.87 µM; in experiment [2], 1.04 µM and 2.1 µM; in [3], 1.69 µM and 2.38 µM; in experiment [4] it was 10.9 µM and > 10 µM; in experiment [5], 14 µM and > 10 µM; in [7], 26.2 µM and > 10 µM. Also, the GI50 in experiment [6] was 3.96 µM and 6.76 µM; in experiment [8] it was 0.417 µM and 0.611 µM. The TGI in experiment [1] was 15.7 µM and > 10 µM; in [2] it was above 100 µM; in experiment [3], 9.96 µM and > 10 µM; in experiment [4] it was above 79.7 µM; in experiment [5] it was 74 µM and > 10 µM; in experiment [7], above 100 µM. The TGI in experiment [6] was 47.5 µM and > 10 µM; in experiment [8], 39 µM and > 10 µM.
For the molecule `COc1ccc(OC)c(/C=N/NC(=O)Cc2csc3nc(-c4ccc(Br)cc4)cn23)c1`, the GI50 in experiment [1] is 8.89 µM; in experiment [2], above 100 µM; in [3], 15.1 µM; in [4], 41.5 µM; in experiment [5] it was 23.9 µM; in [7], 12.8 µM. For the same molecule, the GI50 is 10.3 µM in [6] and 29.7 µM in experiment [8]. Besides, the TGI in experiment [1] is 42.5 µM; in [2] it was above 100 µM; in experiment [3], 72.1 µM; in experiment [4], above 100 µM; in experiment [5], 97.5 µM; in experiment [7], 35.4 µM. Further, the TGI in experiment [6] and in [8] was above 100 µM each time.
Regarding `Nc1ccc2c(c1)C(=O)C(=O)c1c-2nc2ccccn12`, the GI50 in experiment [1] was 0.178 µM; in [2], 0.561 µM; in experiment [3], 0.281 µM; in [4], 1.26 µM; in experiment [5], 1.08 µM; in experiment [7], 1.85 µM. Besides, the GI50 in [6] was 1.8 µM; in [8], 1.06 µM. The TGI in experiment [1] amounted to 0.329 µM; in experiment [2], 3.12 µM; in [3], 0.741 µM; in [4] it was 2.64 µM; in experiment [5], 2.28 µM; in experiment [7], 5.98 µM. The TGI in experiment [6] is 4.71 µM; in experiment [8], 3.07 µM.
Consider `COc1cc2c3c(n(CCCN)c(=O)c2cc1OC)-c1ccccc1C3=O`, for which the GI50 in experiment [1] is 2.02 µM; in [2] it was 0.176 µM; in [3], 0.199 µM; in experiment [4], 9.99 µM; in [5] it was 6.3 µM; in experiment [7], 2.28 µM. For the same molecule, the figures for the GI50 in experiment [6] and in experiment [8] were 0.0772 µM and 0.316 µM, respectively. Further, the TGI in [1] is 19.8 µM; in [3] it was 2.28 µM; in experiment [4], above 46.8 µM; in [5], 27.8 µM; in experiment [7], 9.75 µM; in experiment [8], 2.11 µM.
On to `CC1CC(C2=CC=CCS2)=Nc2ccccc2S1` (stereo not given), for which the TGI in [1], in experiment [2], in [3], in experiment [4], in experiment [5] and in [6] was above 100 µM each time.
Consider `COc1ccccc1/C=C(\C#N)c1ccccc1`, for which the TGI was 40.9 µM in [1]; 74.1 µM in experiment [2]; 48.8 µM in experiment [9]; 99.4 µM in [3]; above 100 µM in experiment [4]; above 100 µM in experiment [5]. The TGI in experiment [6] was above 100 µM.
For the molecule `COc1ccc(C2CC(=O)c3c(O)cc(O)cc3O2)cc1O` (stereo not given), the TGI in experiment [1], in experiment [2], in [3], in [4], in experiment [5] and in experiment [6] was above 100 µM throughout.
Turning to `O=C1[C@@H]2C(c3ccccc3Br)=NO[C@@H]2C(=O)N1c1ccc(Cc2ccc(N3C(=O)[C@H]4C(c5ccccc5Br)=NO[C@H]4C3=O)cc2)cc1`, the TGI in [1], in [2], in [3], in experiment [4], in [5] and in [6] was above 100 µM each time.
For `CN1N=CSC12C(=O)N(c1ccc(Cl)cc1)C(=O)N2c1ccc(Cl)cc1` (stereo not given), the TGI in experiment [1] is 15.1 µM; in experiment [2], 20.4 µM; in experiment [9], above 100 µM; in [3] it was above 100 µM; in experiment [4], above 100 µM; in experiment [5], 33.5 µM. For the same molecule, the TGI in experiment [6] turned out to be 7.21 µM.
On to `CC(C)(C)NNC(=O)/C(=C/c1ccc([N+](=O)[O-])cc1)NC(=O)c1ccccc1`, for which the TGI in experiment [1] is above 100 µM; in [2], above 100 µM; in experiment [9], 46.4 µM; in experiment [3], above 100 µM; in experiment [4], above 100 µM; in experiment [5] it was above 100 µM. The same molecule came in with a TGI in experiment [6] above 100 µM.
As to `CC(C)(C)OC1=C(OC(C)(C)C)C(O)(c2ccccc2)C1=O` (stereo not given), the TGI in experiment [1], in [2], in experiment [3], in experiment [4] and in [6] was above 100 µM in each case.
As to `CC(NS(=O)(=O)c1ccc([N+](=O)[O-])cc1)C(=O)O` (stereo not given), the TGI in experiment [1], in experiment [2], in experiment [3], in [4], in experiment [5] and in experiment [6] was above 100 µM each time.
Turning to `O=C(Nc1ccccc1-c1n[nH]c(=S)[nH]c1=O)C(F)(F)F`, the TGI in experiment [1], in [2], in experiment [9], in experiment [3] and in experiment [4] was above 100 µM throughout.
Consider `COc1cc(C2c3[nH]c4ccccc4c3C[C@H]3COC(=O)N23)cc(OC)c1OC` (stereo not given in full), for which the GI50 in experiment [1] is below 0.01 µM; in [2] it was below 0.01 µM; in experiment [5] it was below 0.01 µM; in experiment [7], 0.0586 µM and < 0.01 µM; in experiment [6], below 0.01 µM; in experiment [8], below 0.01 µM. For the same molecule, the TGI was 8.97 µM in experiment [3]; above 100 µM in experiment [5]; 0.265 µM and 0.0902 µM in experiment [7]; below 0.01 µM in experiment [6].
On to `NCCNc1c2c(c(NCCN)c3c(CO)c[nH]c13)C(=O)c1ccccc1C2=O`, for which the GI50 in [1] is 19.9 µM; in experiment [2] it was 25.7 µM; in experiment [3], 25.3 µM; in experiment [4] it was 24.5 µM; in experiment [5] it was 16.8 µM; in [7] it was above 100 µM. In addition, the GI50 in [6] is 31.3 µM; in experiment [8], 5.59 µM. Further, the TGI in experiment [1] is 69.3 µM; in experiment [2], above 100 µM; in [3] it was above 100 µM; in experiment [4], above 100 µM; in experiment [5], 46 µM; in [7], above 100 µM. In addition, the TGI in [6] was above 100 µM; in experiment [8], 82 µM.
Turning to `CN(C)c1ccc2c(=O)c3ccccc3oc2n1`, the TGI in [1], in experiment [2], in [3], in experiment [4], in [5] and in experiment [6] was above 100 µM throughout.
Regarding `Cc1ccc(NC(=O)c2cc3cc(N=Nc4ccc(Br)cc4)ccc3oc2=O)cc1`, the TGI in experiment [1], in experiment [2], in experiment [9], in experiment [4], in experiment [5] and in [6] was above 100 µM each time.
Turning to `O=C(Nc1ccc(Cl)cc1Cl)C1C(=O)N(c2ccc(Cl)cc2Cl)C(=O)/C1=N\Nc1ccc([N+](=O)[O-])cc1[N+](=O)[O-]` (stereo not given), the TGI was above 100 µM in experiment [1]; above 100 µM in [2]; above 100 µM in [3]; above 100 µM in experiment [4]; 98.7 µM in [5]; 69.5 µM in experiment [6].
